For data set [1], the system named is L1210. As to the kind of experiment: Antitumor activity against mouse L1210 cells […] in ip dosed C3H X DBA2 F1 hybrid mouse on day 0 and dosed at LD10 level once daily on days 1 to 5 assessed as increase in life span relative to control. Type of data set: functional.
A further data set deals with Mus musculus. The data set is described as follows: Toxicity in ip dosed C3H X DBA2 F1 hybrid mouse […] with mouse L1210 cells on day 0 and dosed once daily on days 1 to 5 measured after 50 days. Type of data set: organism-based. The settings on record: in vivo, 1200 h.
Data set [2] relates to L1210. The data set is described as follows: Antitumor activity against mouse L1210 cells […] in ip dosed C3H X DBA2 F1 hybrid mouse on day 0 and dosed once daily on days 1 to 5 assessed as increase in life span relative to control. Type of data set: functional.
The nature of data set [3]: Lipophilic-hydrophilic balance, Rm of the compound by partition chromatography. Type of data set: physicochemical.

From ChEMBL document CHEMBL3228010, “Potential antitumor agents. 29. Quantitative structure-activity relationships for the antileukemic bisquaternary ammonium heterocycles” (J Med Chem, 1979) come the findings set out here.

`CC[n+]1ccc(Nc2ccc(NC(=O)c3ccc(Nc4cc[n+](CC)c5ccc(N)cc45)cc3)cc2N)cc1.[I-].[I-]`: the “log(ILSmax)” value in the data set on L1210 [1] is recorded as 2.1. In the data set on Mus musculus, this compound had an LD10 of 6.5 mg/kg. In addition, the D40 in the data set with L1210 [2] is 1.5 mg/kg. The Rm in data set [3] was determined as 0.15.
Taken in the same sequence, the figures for `C[n+]1cccc(NC(=O)c2ccc(NC(=O)c3ccc(C(=O)Nc4ccc(C(=O)Nc5ccc[n+](C)c5)cc4)cc3)cc2)c1.[I-].[I-]` were 2.02, 17 mg/kg, 7.5 mg/kg and -0.12.
Consider `CCCCC[n+]1cccc2cc(NC(=O)c3ccc(C(=O)Nc4ccc5c(ccc[n+]5CCCCC)c4)cc3)ccc21.Cc1ccc(S(=O)(=O)[O-])cc1.Cc1ccc(S(=O)(=O)[O-])cc1`, for which the “log(ILSmax)” value in the data set with L1210 [1] is listed as 1.62. Further, the LD10 with Mus musculus was 57 mg/kg. Further, the D40 in the data set on L1210 [2] was 55 mg/kg. In addition, in data set [3], the Rm is recorded as 0.92.
Taken in the same sequence, the figures for `CCC[n+]1cccc(NC(=O)c2ccc(NC(=O)c3ccc(C(=O)Nc4ccc(C(=O)Nc5ccc[n+](CCC)c5)cc4)c(OC)c3)cc2)c1.Cc1ccc(S(=O)(=O)[O-])cc1.Cc1ccc(S(=O)(=O)[O-])cc1` were 1.6, 22 mg/kg, 22 mg/kg and 0.78.
Turning to `CCC[n+]1cc(-c2ccc(NC(=O)c3ccc(C(=O)Nc4ccc(-c5c[n+](CCC)c(N)nc5N)cc4)cc3)cc2)c(N)nc1N.Cc1ccc(S(=O)(=O)[O-])cc1.Cc1ccc(S(=O)(=O)[O-])cc1`, the “log(ILSmax)” value with L1210 [1] was determined as 2.15. Also, the LD10 in the data set with Mus musculus was 50 mg/kg. In addition, the D40 with L1210 [2] is 7 mg/kg. The same compound displayed a Rm in data set [3] of -0.08.
Taken in the same sequence, the figures for `CCC[n+]1ccc(Nc2ccc(C(=O)Nc3ccc(/C(C)=N/NC(=N)N)cc3)c(N)c2)c2cc(N)ccc21.Cc1ccc(S(=O)(=O)O)cc1.Cc1ccc(S(=O)(=O)[O-])cc1` were 2.2, 60 mg/kg, 10 mg/kg and 0.07.
For the compound `CCC[n+]1cccc(-c2ccc(NC(=O)/C=C/c3ccc(C(=O)Nc4ccc(-c5ccc(-c6ccc(-c7ccc[n+](CCC)c7)cc6)cc5)cc4)cc3)cc2)c1.Cc1ccc(S(=O)(=O)[O-])cc1.Cc1ccc(S(=O)(=O)[O-])cc1`, the “log(ILSmax)” value with L1210 [1] was 2.2. Besides, in the data set on Mus musculus, the LD10 was determined as 20 mg/kg. For the same compound, the D40 in the data set on L1210 [2] is 6.4 mg/kg. The compound further registered a Rm in data set [3] of 0.02.
Regarding `C[n+]1ccc(Nc2ccc(NC(=O)c3ccc(Nc4cc[n+](C)c5ccccc45)cc3N)cc2)cc1.[I-].[I-]`, in the data set with L1210 [1], the “log(ILSmax)” value came out at 2.18. In the data set with Mus musculus, this compound registered an LD10 of 29 mg/kg. The D40 with L1210 [2] was found to be 1.1 mg/kg. The same compound came in with a Rm in data set [3] of 0.24.
Taken in the same sequence, the figures for `CCCC[n+]1cccc2cc(NC(=O)c3ccc(-c4ccc(-c5ccc(-c6ccc(C(=O)Nc7ccc8c(ccc[n+]8CCCC)c7)cc6)cc5)cc4)cc3)ccc21.Cc1ccc(S(=O)(=O)[O-])cc1.Cc1ccc(S(=O)(=O)[O-])cc1` were 1.73, 57 mg/kg, 15 mg/kg and 0.74.
Taken in the same sequence, the figures for `CCC[n+]1ccc(Nc2ccc(NC(=O)c3ccc(Nc4cc[n+](CCC)c5ccc(N)cc45)cc3N)cc2)cc1.[I-].[I-]` were 2.03, 20 mg/kg, 5.9 mg/kg and 0.52.
For `CC[n+]1cccc(C(=O)Nc2ccc(NC(=O)c3ccc(C(=O)Nc4ccc5c(ccc[n+]5CC)c4)cc3)cc2)c1.Cc1ccc(S(=O)(=O)[O-])cc1.Cc1ccc(S(=O)(=O)[O-])cc1` the same measures were 1.89, 6 mg/kg, 3.1 mg/kg and -0.12.
On to `CC[n+]1ccc(Nc2ccc(NC(=O)/C=C/c3ccc(C(=O)Nc4ccc(Nc5cc[n+](CC)cc5)c(N)c4)cc3)cc2N)cc1.[Br-].[Br-]`, for which the “log(ILSmax)” value in the data set with L1210 [1] was 2.3. Moreover, the LD10 in the data set with Mus musculus came to 7.5 mg/kg. For the same compound, the D40 with L1210 [2] is 1.4 mg/kg. The Rm in data set [3] was found to be 0.35.
For `COCC[n+]1cccc2cc(NC(=O)c3ccc(C(=O)Nc4ccc5c(ccc[n+]5CCOC)c4)cc3)ccc21.Cc1ccc(S(=O)(=O)[O-])cc1.Cc1ccc(S(=O)(=O)[O-])cc1` the same measures were 2.04, 17 mg/kg, 11 mg/kg and 0.4.
For `CC[n+]1ccc(Nc2ccc(NC(=O)c3ccc(C(=O)Nc4ccc(Nc5cc[n+](CC)c(N)n5)cc4)cc3)cc2)nc1N.Cc1ccc(S(=O)(=O)[O-])cc1.Cc1ccc(S(=O)(=O)[O-])cc1` the same measures were 2.06, 112 mg/kg, 10 mg/kg and -0.3.
As for `CCCC[n+]1cccc2cc(NC(=O)COc3ccc(C(=O)Nc4ccc5c(ccc[n+]5CCCC)c4)cc3)ccc21.Cc1ccc(S(=O)(=O)[O-])cc1.Cc1ccc(S(=O)(=O)[O-])cc1`, in the data set on L1210 [1], the “log(ILSmax)” value stood at 1.96. In addition, in the data set with Mus musculus, the LD10 is 210 mg/kg. Further, in the data set on L1210 [2], the D40 was found to be 80 mg/kg. Also, the Rm in data set [3] is recorded as 0.41.
For `C[n+]1ccc(Nc2ccc(NC(=O)c3ccc(Nc4cc[n+](C)c5cc(N)ccc45)cc3N)cc2)cc1.[Br-].[Br-]`, the “log(ILSmax)” value in the data set with L1210 [1] was found to be 2.45. In the data set on Mus musculus, this compound came in with an LD10 of 20 mg/kg. Moreover, the D40 in the data set with L1210 [2] was found to be 1.2 mg/kg. The same compound yielded a Rm in data set [3] of -0.12.
As to `CCC[n+]1cccc(NC(=O)c2ccc(NC(=O)c3ccc(C(=O)Nc4ccc5c(ccc[n+]5CCC)c4)cc3)cc2)c1.Cc1ccc(S(=O)(=O)[O-])cc1.Cc1ccc(S(=O)(=O)[O-])cc1`, in the data set with L1210 [1], the “log(ILSmax)” value is on record as 2.17. The LD10 in the data set on Mus musculus came out at 20 mg/kg. Besides, the D40 in the data set with L1210 [2] was found to be 10.2 mg/kg. In addition, the Rm in data set [3] was 0.44.
Taken in the same sequence, the figures for `CCC[n+]1cccc2cc(NC(=O)c3ccc(C(=O)Nc4ccc5c(ccc[n+]5CCC)c4)c(N)c3)ccc21.Cc1ccc(S(=O)(=O)[O-])cc1.Cc1ccc(S(=O)(=O)[O-])cc1` were 1.92, 10 mg/kg, 3.9 mg/kg and 0.25.
As to `CCCC[n+]1cccc(NC(=O)c2ccc(NC(=O)c3ccc(C(=O)Nc4ccc5c(ccc[n+]5CCCC)c4)cc3)cc2)c1.Cc1ccc(S(=O)(=O)[O-])cc1.Cc1ccc(S(=O)(=O)[O-])cc1`, in the data set on L1210 [1], the “log(ILSmax)” value stood at 1.6. This compound showed an LD10 in the data set on Mus musculus of 32 mg/kg. For the same compound, in the data set on L1210 [2], the D40 was found to be 32 mg/kg. Besides, in data set [3], the Rm is reported as 0.85.
For `CC[n+]1ccc(Nc2ccc(NC(=O)c3ccc(Nc4cc[n+](CC)c5ccccc45)cc3)cc2N)cc1.[I-].[I-]`, the “log(ILSmax)” value in the data set with L1210 [1] worked out at 1.69. This compound displayed an LD10 with Mus musculus of 10 mg/kg. Besides, the D40 in the data set with L1210 [2] came out at 5.1 mg/kg. The Rm in data set [3] turned out to be 0.56.
Taken in the same sequence, the figures for `CCCC[n+]1cccc2cc(NC(=O)c3ccc(C(=O)Nc4ccc5c(ccc[n+]5CCCC)c4)c(N)c3)ccc21.Cc1ccc(S(=O)(=O)[O-])cc1.Cc1ccc(S(=O)(=O)[O-])cc1` were 1.72, 18 mg/kg, 9 mg/kg and 0.6.
`CC[n+]1cccc2cc(NC(=O)c3ccc(C(=O)Nc4ccc(NC(=O)c5ccc6c(ccc[n+]6CC)c5)cc4)cc3)ccc21.Cc1ccc(S(=O)(=O)[O-])cc1.Cc1ccc(S(=O)(=O)[O-])cc1`: the “log(ILSmax)” value in the data set on L1210 [1] worked out at 1.9. This compound had an LD10 with Mus musculus of 50 mg/kg. Moreover, the D40 in the data set on L1210 [2] is 35 mg/kg. In data set [3], this compound yielded a Rm of -0.35.
For `CC[n+]1cccc2cc(NC(=O)/C=C/c3ccc(C(=O)Nc4ccc5c(ccc[n+]5CC)c4)cc3)ccc21.Cc1ccc(S(=O)(=O)[O-])cc1.Cc1ccc(S(=O)(=O)[O-])cc1` the same measures were 1.7, 9 mg/kg, 5 mg/kg and 0.11.
Taken in the same sequence, the figures for `CC[n+]1ccc(Nc2ccc(NC(=O)c3ccc(Nc4cc[n+](CC)c5ccc(N)cc45)cc3N)cc2)cc1.[I-].[I-]` were 2.33, 17 mg/kg, 1.4 mg/kg and 0.37.
Taken in the same sequence, the figures for `CC[n+]1cccc(NC(=O)c2ccc(NC(=O)c3ccc(C(=O)Nc4ccc(C(=O)Nc5ccc[n+](CC)c5)cc4)c(N)c3)cc2)c1.Cc1ccc(S(=O)(=O)[O-])cc1.Cc1ccc(S(=O)(=O)[O-])cc1` were 2.13, 14 mg/kg, 2.4 mg/kg and -0.15.
Consider `CCC[n+]1cccc2cc(NC(=O)c3ccc(NC(=O)c4ccc(C(=O)Nc5ccc6c(ccc[n+]6CCC)c5)cc4)cc3)ccc21.Cc1ccc(S(=O)(=O)[O-])cc1.Cc1ccc(S(=O)(=O)[O-])cc1`, for which the “log(ILSmax)” value with L1210 [1] is recorded as 1.92. The same compound yielded an LD10 with Mus musculus of 95 mg/kg. Further, the D40 in the data set on L1210 [2] came to 38 mg/kg. Moreover, the Rm in data set [3] is -0.21.
`CC[n+]1ccc(Nc2ccc(C(=O)Nc3ccc(Nc4cc[n+](CC)c5ccc(N)cc45)cc3)cc2)cc1.[I-].[I-]`: in the data set with L1210 [1], the “log(ILSmax)” value was determined as 2.23. The same compound displayed an LD10 with Mus musculus of 9 mg/kg. The D40 in the data set with L1210 [2] is 0.7 mg/kg. For the same compound, the Rm in data set [3] was determined as 0.19.
Taken in the same sequence, the figures for `CCC[n+]1cccc(NC(=O)c2ccc(NC(=O)c3ccc(C(=O)Nc4ccc(C(=O)Nc5ccc[n+](CCC)c5)cc4OC)cc3)c(OC)c2)c1.Cc1ccc(S(=O)(=O)[O-])cc1.Cc1ccc(S(=O)(=O)[O-])cc1` were 1.6, 140 mg/kg, 140 mg/kg and 0.3.
